Laboratory results from patent US20240360148A1 (SUVALENT THERAPEUTICS, INC., priority 2021, published 2024).

Legend:
[1] = tested on: sumoylation levels (SUMO 2/3 conjugates) in HCT-116 cells; assay: HCT-116 4 Hour Cell Assay (Western, SUMO 2/3 conjugates); assay type: cell-based; settings: Homo sapiens, HCT-116, 4 h, 4 h treatment, Anti-Sumo 2-3 immunoblot, read-out: HCT-116 Western 4 h IC50 (μM) Ave
Method in brief: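 IC50 derived from fluorescent immunoblot quantification of SUMO 2/3 conjugate bands, normalized to total protein, after non-reducing SDS-PAGE. Lysis used RIPA plus NEM; exposure was 4 h across 11 concentrations, three-fold serial dilution starting at 25 μM.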

SAE1 = SAE1 (Homo sapiens (Human), UniProt Q9UBE0+Q9UBT2); assay: SAE High Throughput Biochemical Assay (HTRF), 15 min preincubation; settings: read-out: 15 min preincubation HTRF IC50 (μM) Ave, SAE1 12.5 nM, ATP 100 μM
Sequence of SAE1 (Q9UBE0 whole entry): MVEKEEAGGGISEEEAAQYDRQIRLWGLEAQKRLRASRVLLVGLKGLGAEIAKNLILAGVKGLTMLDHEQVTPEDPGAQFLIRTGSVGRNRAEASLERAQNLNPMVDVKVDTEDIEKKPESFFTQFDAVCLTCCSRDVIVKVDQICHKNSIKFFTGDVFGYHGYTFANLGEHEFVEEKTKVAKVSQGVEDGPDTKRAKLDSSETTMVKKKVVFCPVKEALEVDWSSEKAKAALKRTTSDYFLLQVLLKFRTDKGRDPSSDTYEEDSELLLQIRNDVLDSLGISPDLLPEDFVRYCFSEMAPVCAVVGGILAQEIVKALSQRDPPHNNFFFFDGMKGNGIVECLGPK
Sequence of SAE1 (Q9UBT2 whole entry): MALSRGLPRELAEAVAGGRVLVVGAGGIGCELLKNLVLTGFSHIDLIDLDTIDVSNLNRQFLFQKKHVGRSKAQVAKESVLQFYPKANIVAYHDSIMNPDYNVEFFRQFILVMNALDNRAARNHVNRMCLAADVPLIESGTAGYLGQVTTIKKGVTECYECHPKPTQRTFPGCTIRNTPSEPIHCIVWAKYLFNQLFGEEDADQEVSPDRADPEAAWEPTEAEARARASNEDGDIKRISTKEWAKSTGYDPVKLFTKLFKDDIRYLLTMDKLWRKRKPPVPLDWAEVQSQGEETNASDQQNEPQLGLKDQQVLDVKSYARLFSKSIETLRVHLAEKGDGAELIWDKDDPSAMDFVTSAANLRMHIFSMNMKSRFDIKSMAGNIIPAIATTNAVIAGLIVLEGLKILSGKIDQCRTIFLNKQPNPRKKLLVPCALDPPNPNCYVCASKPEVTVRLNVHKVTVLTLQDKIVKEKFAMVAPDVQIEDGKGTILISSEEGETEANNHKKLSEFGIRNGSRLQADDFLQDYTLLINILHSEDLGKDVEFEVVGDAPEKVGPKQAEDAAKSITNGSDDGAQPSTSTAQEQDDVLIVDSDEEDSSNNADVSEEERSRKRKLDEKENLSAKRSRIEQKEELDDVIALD
Method in brief: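 HTRF detection of SUMO transfer from SUMO-GST to UBC9-His (40 nM each) by SAE1 at 12.5 nM used 100 μM ATP in pH 7.5 HEPES buffer with 10 mM MgCl2 and 0.1% BSA. Enzyme and compound were preincubated 15 min at RT and the reaction ran 45 min, with readings after 2 h and overnight.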

Row | SMILES | IC50 [1] [µM] | IC50 (SAE1) [µM]
1 | CCn1cc(-c2ccccc2[C@@H]2CN(C(=O)/C=C/CN)Cc3sc(C#N)cc32)c(C(F)(F)F)n1 [Example 125, (S, E)-6-(4-Aminobut-2-enoyl)-4-(2-(1-ethyl-3-(trifluoromethyl)-1 H-pyrazol-4-yl)phenyl)-4,5,6,7-tetrahydrothieno[2,3-c]pyridine-2-carbonitrile] | 0.543 | 1.23
2 | CCn1cc(-c2ccccc2[C@@H]2CN(C(=O)/C=C/[C@H]3CCCN3)Cc3sc(C#N)cc32)c(C(F)(F)F)n1 [Example 113, (S)-4-(2-(1-Ethyl-3-(trifluoromethyl)-1 H-pyrazol-4-yl)phenyl)-6-((E)-3-((R)-pyrrolidin-2-yl)acryloyl)-4,5,6,7-tetrahydrothieno[2,3-c]pyridine-2-carbonitrile] | 1.79 | 1.61
3 | CCn1cc(-c2ccccc2[C@@H]2CN(C(=O)/C=C/[C@@H]3CC(C)(C)CN3)Cc3sc(C#N)cc32)c(C(F)(F)F)n1 [Example 83, (S)-6-((E)-3-((S)-4,4-Dimethylpyrrolidin-2-yl)acryloyl)-4-(2-(1-ethyl-3-(trifluoromethyl)-1H pyrazol-4-yl)phenyl)-4,5,6,7-tetrahydrothieno[2,3-c]pyridine-2-carbonitrile] | 0.309 | 0.76
4 | [2H]C(C)(C)NC/C=C/C(=O)N1Cc2sc(C#N)cc2[C@H](c2cccc(F)c2-c2cn(CC)nc2C(F)(F)F)C1 [Example 52, (S, E)-4-(2-(1-ethyl-3-(trifluoromethyl)-1 H-pyrazol-4-yl)-3-fluorophenyl)-6-(4-((propan-2-yl-2-d)amino)but-2-enoyl)-4,5,6,7-tetrahydrothieno[2,3-c]pyridine-2-carbonitrile] | 0.308 | 0.69
5 | CCn1cc(-c2ccccc2[C@@H]2CN(C(=O)/C=C/[C@@H]3CCC(C)(C)N3)Cc3sc(C#N)cc32)c(C(F)(F)F)n1 [Example 79, (S)-6-((E)-3-((S)-5,5-Dimethylpyrrolidin-2-yl)acryloyl)-4-(2-(1-ethyl-3-(trifluoromethyl)-1H pyrazol-4-yl)phenyl)-4,5,6,7-tetrahydrothieno[2,3-c]pyridine-2-carbonitrile] | 0.324 | 1.77
6 | CCn1cc(-c2ccccc2[C@@H]2CN(C(=O)/C=C/C3CCCCN3)Cc3sc(C#N)cc32)c(C(F)(F)F)n1 (stereo partly drawn) [Example 111, (4S)-4-(2-(1-Ethyl-3-(trifluoromethyl)-1H pyrazol-4-yl)phenyl)-6-((E)-3-(piperidin-2-yl)acryloyl)-4,5,6,7-tetrahydrothieno[2,3-c]pyridine-2-carbonitrile] | 0.909 | 3.36
7 | CCn1cc(-c2ccccc2[C@@H]2CN(C(=O)/C=C/CN(C)C)Cc3sc(C#N)c(Cl)c32)c(C(F)(F)F)n1 [Compound 247] | 0.2 | 1.66
8 | CCn1cc(-c2ccccc2[C@@H]2CN(C(=O)/C=C/CN(C)C)Cc3sc(C#N)c(C)c32)c(C(F)(F)F)n1 [Compound 239] | 0.187 | 1.12
9 | CCn1cc(-c2c(F)cccc2[C@@H]2CN(C(=O)/C=C/[C@@H]3C[C@@H](F)CN3)Cc3sc(C#N)cc32)c(C(F)(F)F)n1 [Example 121, (S)-4-(2-(1-Ethyl-3-(trifluoromethyl)-1H pyrazol-4-yl)-3-fluorophenyl)-6-((E)-3-((2S,4R)-4-fluoropyrrolidin-2-yl)acryloyl)-4,5,6,7-tetrahydrothieno[2,3-c]pyridine-2-carbonitrile] | 0.577 | 0.43
10 | CCn1cc(-c2ccccc2[C@@H]2CN(C(=O)/C=C/[C@@H]3C[C@H](C)CN3)Cc3sc(C#N)cc32)c(C(F)(F)F)n1 [Example 80, (S)-4-(2-(1-Ethyl-3-(trifluoromethyl)-1H pyrazol-4-yl)phenyl)-6-((E)-3-((2S,4S)-4-methylpyrrolidin-2-yl)acryloyl)-4,5,6,7-tetrahydrothieno[2,3-c]pyridine-2-carbonitrile] | 0.212 | 1.24
11 | CCn1cc(-c2ccccc2[C@@H]2CN(C(=O)/C=C/[C@H]3CC(C)(C)CN3)Cc3sc(C#N)cc32)c(C(F)(F)F)n1 [Example 82, (S)-6-((E)-3-((R)-4,4-Dimethylpyrrolidin-2-yl)acryloyl)-4-(2-(1-ethyl-3-(trifluoromethyl)-1H pyrazol-4-yl)phenyl)-4,5,6,7-tetrahydrothieno[2,3-c]pyridine-2-carbonitrile] | 0.357 | 1.08
12 | CCn1cc(-c2c(F)cccc2[C@@H]2CN(C(=O)/C=C/[C@@H]3C[C@H](F)CN3)Cc3sc(C#N)cc32)c(C(F)(F)F)n1 [Example 122, (S)-4-(2-(1-Ethyl-3-(trifluoromethyl)-1H pyrazol-4-yl)-3-fluorophenyl)-6-((E)-3-((2S,4S)-4-fluoropyrrolidin-2-yl)acryloyl)-4,5,6,7-tetrahydrothieno[2,3-c]pyridine-2-carbonitrile] | 0.0631 | 0.12
13 | CCn1cc(-c2ccccc2[C@@H]2CN(C(=O)/C=C/CNC(C)(C)CO)Cc3sc(C#N)cc32)c(C(F)(F)F)n1 [Compound 244] | 1.97 | 2.88
14 | CCn1cc(-c2ccccc2[C@@H]2CN(C(=O)C#CC3CNC3)Cc3sc(C#N)cc32)c(C(F)(F)F)n1 [Example 147, (S)-6-(3-(Azetidin-3-yl)propioloyl)-4-(2-(1-ethyl-3-(trifluoromethyl)-1 H pyrazol-4-yl)phenyl)-4,5,6,7-tetrahydrothieno[2,3-c]pyridine-2-carbonitrile] | 3.47 | 0.62
15 | CCn1cc(C2=C([C@@H]3CN(C(=O)/C=C/CN(C)C)Cc4sc(C#N)cc43)CCCC2)c(C(F)(F)F)n1 [Compound 237] | 0.897 | 2.64
16 | CCn1cc(-c2ccccc2[C@@H]2CN(C(=O)/C=C/[C@@H](N)CO)Cc3sc(C#N)cc32)c(C(F)(F)F)n1 [Example 74, (S)-6-((R, E)-4-Amino-5-hydroxypent-2-enoyl)-4-(2-(1-ethyl-3-(trifluoromethyl)-1 H-pyrazol-4-yl)phenyl)-4,5,6,7-tetrahydrothieno[2,3-c]pyridine-2-carbonitrile] | 2.24 | 2.84
17 | CCn1cc(-c2ccccc2[C@@H]2CN(C(=O)/C=C/CN3CCCC3C)Cc3sc(C#N)cc32)c(C(F)(F)F)n1 (stereo partly drawn) [Example 31, (4S)-4-(2-(1-ethyl-3-(trifluoromethyl)-1 H-pyrazol-4-yl)phenyl)-6-((E)-4-(2-methylpyrrolidin-1-yl)but-2-enoyl)-4,5,6,7-tetrahydrothieno[2,3-c]pyridine-2-carbonitrile] | 0.918 | 10.2
18 | CN(C)C/C=C/C(=O)N1Cc2sc(C#N)cc2[C@H](c2ccccc2-c2cn(-c3c(F)cncc3Cl)nc2C(F)(F)F)C1 [Example 156, (S,E)-4-(2-(1-(3-Chloro-5-fluoropyridin-4-yl)-3-(trifluoromethyl)-1H pyrazol-4-yl)phenyl)-6-(4-(dimethylamino)but-2-enoyl)-4,5,6,7-tetrahydrothieno[2,3-c]pyridine-2-carbonitrile] | 0.349 | 2.91
19 | CCn1cc(-c2ccccc2[C@@H]2CN(C(=O)/C=C/CNCC(C)C)Cc3sc(C#N)cc32)c(C(F)(F)F)n1 [Example 104] | 1.78 | 2.14
